The text below walks through data of patent US8388944B2, “Inactivating organisms using carbon dioxide at or near its supercritical pressure and temperature conditions” (Novasterilis Inc., priority 2003, dated 2013).

Counter-ions that a name gives are not always drawn.

Assay [1] has as its system Escherichia coli. Description: Inactivation of bacteria by supercritical carbon dioxide. The class given is cell-based. Conditions: 34° C., 2973 psi to 1500 psi, three cycles over 0.5 hours. The text has this: (§1) Maintaining the natural presentation environment for a given antigen generally enhances the protective qualities of a given vaccine. Ghost vaccine preparations result in empty bacterial shells that are intact except for holes produced by the lysis gene product when viewed by scanning electron microscopy (SEM). In contrast, organisms inactivated by supercritical carbon dioxide have intact cell walls (i.e., no lysis holes) and are not empty (i.e., the cytosolic contents are retained). Staphylococcus aureus and Pseudomonas aeruginosa were inactivated by at least 6-log with supercritical carbon dioxide at 40° C. and 2973 psi to 1500 psi for a total of six cycles over 4 hours. Escherichia coli was inactivated by at least 6-log with supercritical carbon dioxide at 34° C. and 2973 psi to 1500 psi for a total of three cycles over 0.5 hours.

Assay [2] deals with Pseudomonas aeruginosa. The description is as above. Conditions: 40° C., 2973 psi to 1500 psi, six cycles over 4 hours. It counts as cell-based.
Text: as §1

The subject of assay [3] is Staphylococcus aureus. The description is as above. It counts as cell-based. Conditions: 40° C., 2973 psi to 1500 psi, six cycles over 4 hours.
Text: as §1

In assay [4] the test system is B. stearothermophilus spores. Description: Inactivation of B. stearothermophilus spores, CFU counted after serial dilution and culturing. The class given is cell-based. Conditions: for CFU/mL after treatment: start 2.3×10^6 CFU/mL. An excerpt: The effects of using an additive in accordance with the present invention was compared using the process described by U.S. Pat. No. 6,149,864 to Dillow et al. for inactivating B. stearothermophilus spores. […] In contrast, 6.4-log inactivation (i.e., 2.3×10^6 CFU/mL to undetectable) was achieved using the process of the present invention (i.e., 1100 psi to 3000 psi with random and directional agitation, and including TFA as the chemical additive). The chemical additive was placed on a cotton ball and inserted in the chamber prior to closure. No further chemical additive was used.
The apparatus generally depicted in FIG. 1 was employed. A sample of B. stearothermophilus spores (1 mL) of greater than 10^6 CFU/mL was placed in 16 mm diameter test tubes in a stainless steel basket. Trifluoroacetic acid (4 mL) was transferred by syringe onto the surface of a cotton ball placed in the basket and water (6 mL) was placed at bottom of vessel. The basket was then loaded into the 600 mL reactor vessel. The reactor vessel was heated to 50° C. and equilibrated with CO2 at atmospheric pressure. The stirring and agitation mechanisms were activated and the reactor vessel pressurized to […] for 40 minutes. The CO2 pressure was then allowed to drop to 1100 psi at a rate of 300 psi/minute. Agitation by means of vibration of the vessel was carried out for 1 minute.
The pressurization/stirring/agitation/depressurization process was repeated a total of three times. After the third cycle, a series of three flushing cycles to remove the additive was performed by pressurizing and partial depressurizing the reactor vessel using CO2. The stirring was stopped and the basket was removed from the reactor vessel. Any remaining CFU were counted after serial dilution and culturing of both treated and untreated controls.

Assay [5] relates to Salmonella typhimurium. Description: Inactivation of S. typhimurium, serial dilutions and colony counts. It counts as cell-based. Conditions: Example 8: no chemical additive, water 1 vol. %, 35° C., 1500 psi constant for 15 minutes, greater than 10^9 CFU/mL. As to the method: A sample of Salmonella typhimurium (5 mL), […], of greater than 10^9 CFU/mL was placed into 16 mm test tubes in a stainless steel basket. Water was added on a cotton ball to the vessel at 1% of the total volume (1 vol. %) of the vessel. No chemical additive was placed in the vessel. The reactor vessel was heated to 35° C. and equilibrated with CO2 at atmospheric pressure. The stirring and agitation mechanisms were activated and vessel pressurized to 1500 psi and held constant for 15 minutes. The vessel was then depressurized and the contents removed for analysis. Quantitative analysis of any remaining Salmonella typhimurium in treated sample vs. untreated control was enumerated though serial dilutions and colony counts.

Assay [6] relates to B. subtilis spore forms. Conditions: process disclosed in the Dillow '864 patent, other investigators [27]; cited from earlier work.
Assay [7] concerns B. subtilis spore and vegetative forms. In words: Inactivation of B. subtilis spore and vegetative forms, CFU counted after serial dilution and culturing. It counts as cell-based, Bacillus subtilis. As for the experimental part: The reactor vessel was heated to 50° C. and equilibrated with CO2 at atmospheric pressure. The stirring and agitation mechanisms were activated and the reactor vessel pressurized to 3000 psi for 40 minutes. The CO2 pressure was then allowed to drop to 1500 psi at a rate of 300 psi/minute. Agitation was carried out for 1 minute.
The loop was sealed and pressurized to 3000 psi.
The stirring was stopped and the basket was removed from the reactor vessel.
The reactor vessel was heated to 50° C. and equilibrated with CO2 at atmospheric pressure. […] The CO2 pressure was then allowed to drop to 1500 psi at a rate of 300 psi/minute.

Consider `O=C=O` [supercritical carbon dioxide, carbon dioxide], for which the log inactivation entry is given as “at least 6 log” in assay [1]; “at least 6 log” in assay [2]; “at least 6 log” in assay [3]; 1.0 log in assay [4] (no chemical additive, Dillow '864 conditions, three cycles of 60° C. for two hours, 1500 psi to 3000 psi, random agitation). The CFU/mL after treatment in assay [4] (no chemical additive, three cycles of 60° C. for two hours, 1500 psi to 3000 psi) is 2.1×10^5 CFU/mL. The log reduction in assay [5] stood at 9 log. In addition, in assay [6], the “log reduction in B. subtilis spore forms” value is 3.5 log.
Compound `O=C(O)C(F)(F)F` [TFA, trifluoroacetic acid] showed a log inactivation in assay [4] (TFA as chemical additive in supercritical CO2, 1100 psi to 3000 psi, random and directional agitation) of 6.4 log. Further, the CFU/mL after treatment entry in assay [4] (TFA as chemical additive in supercritical CO2, 1100 psi to 3000 psi) is “undetectable”.
Take `CC(=O)O` [Acetic acid, acetic acid]: the “kill of B. subtilis present” value in assay [7] (Example 3B: as Example 3A, samples of less than 10^6 CFU/ml) was “total kill”. Moreover, the “log reduction in CFU extrapolated for greater than 10^6 CFU/ml” value in assay [7] (Example 3B: extrapolated from total kill of samples below 10^6 CFU/ml) was 6 log. Moreover, the log reduction result in assay [7] (Example 7: acetic acid 6 mL then 4 mL per cycle in CO2, 50° C., 3000 psi 40 minutes to 1500 psi, three cycles) is “at least 6 log”.
